Reference: ChEMBL document CHEMBL4680318, “(S)-Erypoegin K, an isoflavone isolated from Erythrina poeppigiana, is a novel inhibitor of topoisomerase IIα: Induction of G2 phase arrest in human gastric cancer cells” (Bioorg Med Chem, 2021)
Calls of active or inactive are those of the source. The calls are words filed in the database; no cut-off is given here.

Key:
[1] = Growth inhibition of human HBC4 cells measured after 48 hrs by sulforhodamine B assay; assay type: functional
[2] = Growth inhibition of human BSY1 cells measured after 48 hrs by sulforhodamine B assay; assay type: functional; conditions: BSY-1
[3] = Growth inhibition of human HBC5 cells measured after 48 hrs by sulforhodamine B assay; assay type: functional
SF-268 = assay: Growth inhibition of human SF-268 cells measured after 48 hrs by sulforhodamine B assay; assay type: functional
SF-295 = assay: Growth inhibition of human SF-295 cells measured after 48 hrs by sulforhodamine B assay; assay type: functional
SF-539 = assay: Growth inhibition of human SF-539 cells measured after 48 hrs by sulforhodamine B assay; assay type: functional
SNB-75 = assay: Growth inhibition of human SNB-75 cells measured after 48 hrs by sulforhodamine B assay; assay type: functional
SNB-78 = assay: Growth inhibition of human SNB-78 cells measured after 48 hrs by sulforhodamine B assay; assay type: functional
HCC 2998 = assay: Growth inhibition of human HCC 2998 cells measured after 48 hrs by sulforhodamine B assay; assay type: functional
KM12 = assay: Growth inhibition of human KM12 cells measured after 48 hrs by sulforhodamine B assay; assay type: functional
HCT-15 = assay: Growth inhibition of human HCT-15 cells measured after 48 hrs by sulforhodamine B assay; assay type: functional
HCT-116 = assay: Growth inhibition of human HCT-116 cells measured after 48 hrs by sulforhodamine B assay; assay type: functional
NCI-H23 = assay: Growth inhibition of human NCI-H23 cells measured after 48 hrs by sulforhodamine B assay; assay type: functional
NCI-H522 = assay: Growth inhibition of human NCI-H522 cells measured after 48 hrs by sulforhodamine B assay; assay type: functional
NCI-H460 = assay: Growth inhibition of human NCI-H460 cells measured after 48 hrs by sulforhodamine B assay; assay type: functional
A549 = assay: Growth inhibition of human A549 cells measured after 48 hrs by sulforhodamine B assay; assay type: functional
DMS-114 = assay: Growth inhibition of human DMS-114 cells measured after 48 hrs by sulforhodamine B assay; assay type: functional
LOX IMVI = assay: Growth inhibition of human LOX IMVI cells measured after 48 hrs by sulforhodamine B assay; assay type: functional
OVCAR-3 = assay: Growth inhibition of human OVCAR-3 cells measured after 48 hrs by sulforhodamine B assay; assay type: functional
OVCAR-4 = assay: Growth inhibition of human OVCAR-4 cells measured after 48 hrs by sulforhodamine B assay; assay type: functional
OVCAR-5 = assay: Growth inhibition of human OVCAR-5 cells measured after 48 hrs by sulforhodamine B assay; assay type: functional
ACHN = assay: Growth inhibition of human ACHN cells measured after 48 hrs by sulforhodamine B assay; assay type: functional
St-4 = assay: Growth inhibition of human St-4 cells measured after 48 hrs by sulforhodamine B assay; assay type: functional
MKN-7 = assay: Growth inhibition of human MKN-7 cells measured after 48 hrs by sulforhodamine B assay; assay type: functional
MKN-28 = assay: Growth inhibition of human MKN-28 cells measured after 48 hrs by sulforhodamine B assay; assay type: functional
MKN-45 = assay: Growth inhibition of human MKN-45 cells measured after 48 hrs by sulforhodamine B assay; assay type: functional
MKN-74 = assay: Growth inhibition of human MKN-74 cells measured after 48 hrs by sulforhodamine B assay; assay type: functional
DU-145 = assay: Growth inhibition of human DU-145 cells measured after 48 hrs by sulforhodamine B assay; assay type: functional
PC-3 = assay: Growth inhibition of human PC-3 cells measured after 48 hrs by sulforhodamine B assay; assay type: functional
[4] = biological target: DNA topoisomerase 2-alpha (Homo sapiens) (UniProt P11388); assay: Inhibition of human DNA topoisomerase 2alpha assessed as suppression of decatenation using catenated kinetoplast DNA as substrate measured after 30 mins by ethidium bromide staining-based UV imaging analysis
DNA topoisomerase 2-alpha (Homo sapiens), sequence (P11388 whole entry): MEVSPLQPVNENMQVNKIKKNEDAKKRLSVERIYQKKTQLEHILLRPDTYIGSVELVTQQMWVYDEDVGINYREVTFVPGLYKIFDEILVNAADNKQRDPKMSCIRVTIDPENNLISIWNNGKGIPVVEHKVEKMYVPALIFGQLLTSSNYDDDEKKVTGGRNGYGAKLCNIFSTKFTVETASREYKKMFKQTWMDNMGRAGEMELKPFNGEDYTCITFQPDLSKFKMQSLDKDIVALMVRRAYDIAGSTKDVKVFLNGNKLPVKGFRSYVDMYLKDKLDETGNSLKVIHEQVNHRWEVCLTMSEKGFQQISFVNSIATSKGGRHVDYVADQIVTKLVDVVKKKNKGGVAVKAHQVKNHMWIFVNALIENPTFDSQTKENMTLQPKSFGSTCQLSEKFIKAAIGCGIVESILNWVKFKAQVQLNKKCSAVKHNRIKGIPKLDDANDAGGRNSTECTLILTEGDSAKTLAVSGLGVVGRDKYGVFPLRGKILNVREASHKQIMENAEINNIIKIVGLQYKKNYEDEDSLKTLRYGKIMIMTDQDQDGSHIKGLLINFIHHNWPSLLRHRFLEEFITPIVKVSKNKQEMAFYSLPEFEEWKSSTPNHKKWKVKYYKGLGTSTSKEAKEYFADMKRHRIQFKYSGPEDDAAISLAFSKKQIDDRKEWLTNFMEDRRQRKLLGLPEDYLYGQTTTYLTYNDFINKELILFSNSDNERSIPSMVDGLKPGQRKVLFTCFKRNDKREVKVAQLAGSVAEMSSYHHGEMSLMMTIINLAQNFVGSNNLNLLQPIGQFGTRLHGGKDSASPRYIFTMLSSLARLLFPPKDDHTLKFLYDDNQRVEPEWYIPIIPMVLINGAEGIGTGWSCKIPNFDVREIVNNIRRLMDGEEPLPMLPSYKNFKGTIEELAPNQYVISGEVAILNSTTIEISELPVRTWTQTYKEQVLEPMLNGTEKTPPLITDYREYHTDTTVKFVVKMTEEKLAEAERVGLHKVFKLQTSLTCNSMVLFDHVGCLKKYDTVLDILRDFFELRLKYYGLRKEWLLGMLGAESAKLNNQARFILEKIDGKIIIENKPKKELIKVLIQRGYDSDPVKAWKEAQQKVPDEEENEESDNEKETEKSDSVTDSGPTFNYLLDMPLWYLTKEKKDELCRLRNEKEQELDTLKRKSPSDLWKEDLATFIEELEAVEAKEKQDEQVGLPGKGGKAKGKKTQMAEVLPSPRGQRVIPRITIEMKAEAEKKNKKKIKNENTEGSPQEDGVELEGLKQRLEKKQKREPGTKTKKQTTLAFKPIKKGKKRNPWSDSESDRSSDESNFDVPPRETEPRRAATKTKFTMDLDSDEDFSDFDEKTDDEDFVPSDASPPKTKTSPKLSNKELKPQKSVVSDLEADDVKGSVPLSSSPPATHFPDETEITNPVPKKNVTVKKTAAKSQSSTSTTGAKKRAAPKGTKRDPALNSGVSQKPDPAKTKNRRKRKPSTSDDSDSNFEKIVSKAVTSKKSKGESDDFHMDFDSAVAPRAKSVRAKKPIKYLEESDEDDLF

GCIY [5] = assay: Cytotoxicity against human GCIY cells assessed as reduction in cell viability measured after 48 hrs by MTS/CellTiter96 aqueous one solution cell proliferation assay; assay type: functional, cell-based
GCIY [6] = assay: Induction of apoptosis in human GCIY cells assessed as activation of caspase 3 measured after 5 to 35 hrs by fluorescence assay; assay type: functional, cell-based; conditions: dose 1-10 µM, time 5-35 hrs
GCIY [7] = assay: Induction of apoptosis in human GCIY cells assessed as activation of caspase 3 at 1 to 10 uM by fluorescence assay; assay type: functional, cell-based; conditions: dose 1-10 µM, time 5-35 hrs, TDE = time-dependent effect
GCIY [8] = assay: Induction of apoptosis in human GCIY cells assessed as activation of caspase 9 at 1 to 10 uM by fluorescence assay; assay type: functional, cell-based; conditions: dose 1-10 µM, time 5-35 hrs, TDE = time-dependent effect
MKN-1 [9] = assay: Induction of apoptosis in human MKN-1 cells assessed as activation of caspase 3 at 1 to 10 uM by fluorescence assay; assay type: functional, cell-based; conditions: dose 1-10 µM, time 5-35 hrs, TDE = time-dependent effect
MKN-1 [10] = assay: Induction of apoptosis in human MKN-1 cells assessed as activation of caspase 9 at 1 to 10 uM by fluorescence assay; assay type: functional, cell-based; conditions: dose 1-10 µM, time 5-35 hrs, TDE = time-dependent effect
GCIY [11] = assay: Cell cycle arrest in human GCIY cells assessed as accumulation at G0/G1 phase at 0.1 uM measured after 24 hrs by propidium iodide staining based Muse cell analyzer (reference value: 43 +/- 2.2 %); assay type: functional
GCIY [12] = assay: Cell cycle arrest in human GCIY cells assessed as accumulation at G2/M phase at 0.1 uM measured after 24 hrs by propidium iodide staining based Muse cell analyzer (reference value: 28.9 +/- 1.3 %); assay type: functional
GCIY [13] = assay: Cell cycle arrest in human GCIY cells assessed as accumulation at G0/G1 phase at 0.3 uM measured after 24 hrs by propidium iodide staining based Muse cell analyzer (reference value: 43 +/- 2.2 %); assay type: functional
GCIY [14] = assay: Cell cycle arrest in human GCIY cells assessed as accumulation at S phase at 0.3 uM measured after 24 hrs by propidium iodide staining based Muse cell analyzer (reference value: 25.7 +/- 0.7 %); assay type: functional
GCIY [15] = assay: Cell cycle arrest in human GCIY cells assessed as accumulation at G2/M phase at 0.3 uM measured after 24 hrs by propidium iodide staining based Muse cell analyzer (reference value: 28.9 +/- 1.3 %); assay type: functional
MKN-1 [16] = assay: Cell cycle arrest in human MKN-1 cells assessed as accumulation at G2/M phase at 0.1 uM measured after 24 hrs by propidium iodide staining based Muse cell analyzer (reference value: 33.2 +/- 0.5 %); assay type: functional
MKN-1 [17] = assay: Cell cycle arrest in human MKN-1 cells assessed as accumulation at G0/G1 phase at 0.3 uM measured after 24 hrs by propidium iodide staining based Muse cell analyzer (reference value: 49.6 +/- 2.6 %); assay type: functional
MKN-1 [18] = assay: Cell cycle arrest in human MKN-1 cells assessed as accumulation at S phase at 0.3 uM measured after 24 hrs by propidium iodide staining based Muse cell analyzer (reference value: 15.5 +/- 0.2 %); assay type: functional
GCIY [19] = assay: Antitumor activity against human GCIY cells xenografted in KSN/Slc nude mouse assessed as reduction in tumor size at 40 mg/kg, ip administered twice a week for 4 weeks starting from day 4 post inoculation by vernier caliper method; assay type: functional, organism-based
[20] = Toxicity in KSN/Slc nude mouse xenografted with human GCIY cells assessed as effect on body weight at 40 mg/kg, ip administered twice a week for 4 weeks starting from day 4 post inoculation; assay type: organism-based; conditions: in vivo, 672 h

GI50 (HCC 2998): 2040 nM
GI50 (HCT-15): 676 nM
GI50 (HCT-116): 1070 nM
GI50 (NCI-H23): 380 nM
GI50 (NCI-H522): 1580 nM
GI50 (NCI-H460): 70.8 nM
GI50 (A549): 120 nM
GI50 (OVCAR-3): 2880 nM
GI50 (OVCAR-4): > 100000 nM
GI50 (OVCAR-5): 1350 nM
GI50 (ACHN): 182 nM
GI50 (MKN-7): 4370 nM
GI50 (MKN-28): 7080 nM
GI50 (MKN-45): 347 nM
GI50 (MKN-74): 6920 nM
GI50 (DU-145): 316 nM
GI50 (PC-3): > 100000 nM
inhibition [4]: Active
Compound: CC(C)(O)[C@@H]1Cc2c(cc(O)c3c(=O)c(-c4ccc(O)cc4)coc23)O1
GI50 [1]: 1740 nM
GI50 [2]: 631 nM
GI50 [3]: 6760 nM
GI50 (SF-268): 457 nM
GI50 (SF-295): 275 nM
GI50 (SF-539): 347 nM
GI50 (SNB-75): 537 nM
GI50 (SNB-78): 5890 nM
GI50 (KM12): 813 nM
GI50 (DMS-114): 380 nM
GI50 (LOX IMVI): 257 nM
GI50 (St-4): 6030 nM
IC50 (GCIY [5]): 270 nM
Activity (GCIY [6]): Dose-dependent effect
Activity (GCIY [7]): Tde
Activity (GCIY [8]): Tde
Activity (MKN-1 [9]): Tde
Activity (MKN-1 [10]): Tde
Activity (GCIY [11]): 34.6%
Activity (GCIY [12]): 40.4%
Activity (GCIY [13]): 2.8%
Activity (GCIY [14]): 7%
Activity (GCIY [15]): 87.3%
Activity (MKN-1 [16]): 60.8%
Activity (MKN-1 [17]): 4.9%
Activity (MKN-1 [18]): 9.5%
Activity (GCIY [19]): Active
Activity [20]: Non-Toxic
